Test results: PMC12758957 (Thrombosis and Haemostasis, 2025)
Each block holds one molecule with its values, some of them ahead of it.

What was measured:
[1] = molecular target: T1, prothrombinase-activated wild-type prothrombin (Homo sapiens, UniProt P00734); experiment: Inhibition of pNAPEP-0238 peptidyl substrate conversion in a purified system; type: biochemical; conditions: wild-type thrombin, observed vs reported (ref 41)
Procedure: (§1) Prothrombin variants were activated to thrombin by prothrombinase immediately prior to analyses. Reaction mixtures of prothrombin variant (1 μM) and preassembled prothrombinase (2 nM FXa, 2 nM FV-810, and 50 μM phospholipid TGT, final concentrations) were incubated for 30 minutes at 25°C in assay buffer, upon which the reaction was quenched in dilution buffer supplemented with 50 mM EDTA.

[2] = molecular target: prothrombinase-activated prothrombin-KL3; type: biochemical, human
Procedure: as §1

wild-type thrombin = conditions: read-out: reported K i, substrate conversion; cited from earlier work
thrombin = conditions: read-out: reported IC50, peak thrombin formation; cited from earlier work
[3] = molecular target: T1, prothrombinase-activated wild-type prothrombin; conditions: 1 μM dabigatran
Procedure: Fibrinogen conversion was determined employing a turbidity assay. […] Turbidity was measured for 1 hour at 25°C and 350 nm.

FXa = test system: FXa; set-up: method as in PMID 28904343, PMID 38729577; conditions: S4 subsite modified FXa variants; cited from earlier work

lower K i value observed versus reported [1]: 13 fold
Structure (SMILES): CC1CNc2c(cccc2S(=O)(=O)N[C@@H](CCCNC(=N)N)C(=O)N2CC[C@@H](C)C[C@@H]2C(=O)O)C1 (some centres unmarked) [Argatroban]

Structure (SMILES): [H]/N=C(/N)c1ccc(NCc2nc3cc(C(=O)N(CCC(=O)O)c4ccccn4)ccc3n2C)cc1 [Dabigatran]
IC50 ([2]; 5 nM prothrombinase-activated KL3, 50 μM pNAPEP-0238, read-out: IC50, pNAPEP-0238 conversion): 237 ± 33 nM
Ki ([2]; KL3, Cheng-Prusoff equation): 150 nM
Ki (wild-type thrombin): 5 nM
fibrinogen conversion by activated wild-type prothrombin (in words) [3]: no detectable fibrinogen conversion

Structure (SMILES): COc1ccc(-n2nc(C(N)=O)c3c2C(=O)N(c2ccc(N4CCCCC4=O)cc2)CC3)cc1 [apixaban]
hindered FXa active site engagement by inhibitor (FXa): ≤ 800 fold

Structure (SMILES): O=C(NC[C@H]1CN(c2ccc(N3CCOCC3=O)cc2)C(=O)O1)c1ccc(Cl)s1 [rivaroxaban]
hindered FXa active site engagement by inhibitor (FXa): ≤ 800 fold
